{
  "source": "patent US20070082903A1",
  "about": "“Remedy for rheumatoid arthritis” (priority 2003, published 2007)",
  "tested_on": "patients with rheumatoid arthritis",
  "assay": "administration to patients with rheumatoid arthritis, ACR criterion evaluation at 16 weeks",
  "assay_type": "in vivo, human",
  "settings": "for improvement rate: SF-36 mental scale / improvement rate: SF-36 physical scale / improvement rate: erythrocyte sedimentation rate / improvement rate: patient's self-assessed physical functions / improvement rate: reduction of swollen joint count / improvement rate: reduction of tender joint count / improvement rate: patient's assessment of pain / improvement rate: patient's global assessment of disease activity / improvement rate: physician's global assessment of disease activity / improvement rate: CRP: 16 weeks vs initial value; for improvement rate: patient's assessment of pain / improvement rate: patient's global assessment of disease activity / improvement rate: physician's global assessment of disease activity: VAS; for improvement rate: CRP: in % (unit assumed)",
  "text": "When 20% or more improvement is observed in the items 1) and 2) and 20% or more improvement is observed in at least three of the five items 3) to 7), the therapeutic effect is rated as “20% improvement on the criterion established by the American College of Rheumatology” (20% improvement on the ACR criterion). • 1) Reduction of tender joint count. • 2) Reduction of swollen joint count. • 3) Patient's global assessment of disease activity. • 4) Physician's global assessment of disease activity. • 5) Patient's assessment of pain. • 6) Patient's self-assessed physical functions. • 7) CRP or erythrocyte sedimentation rate.\nSimilarly, when 50% or more improvement is observed in the items 1) and 2) and 50% or more improvement is observed in at least three of the five items 3) to 7), the therapeutic effect is rated as “50% improvement on the criterion established by the American College of Rheumatology” (50% improvement on the ACR criterion).\nSMP-114 was orally administered once a day after a meal to patients with rheumatoid arthritis who had been treated with 1 to 5 DMARDs other than SMP-114 (to whom these DMARDs seemed to be non-administrable because of their side effects, or for whom these DMARDs seemed to be ineffective or insufficiently effective). As to the dose, a placebo, 40 mg/day, 80 mg/day and 120 mg/day were employed (about 50 cases per group). […] SMP-114 was continuously administered to patients in whom the standard had been reached, until the 24th week while keeping the test blind. Sixteen weeks after the start of the administration, the placebo group, 40 mg/day group, 80 mg/day group and 120 mg/day group were compared with respect to the proportion of patients satisfying the requirement “20% improvement on the criterion established by the American College of Rheumatology”, whereby the efficacy of the SMP-114 was evaluated (in the present example, the following ratings were given on a visual analogue scale (VAS): 3) a patient's global assessment of disease activity, 4) a physician's global assessment of disease activity, and 5) a patient's assessment of pain, on the ACR criterion.).\nWhen the following improvements are observed on the above-mentioned criterion of improvement established by the American College of Rheumatology, it is judged that “50% improvement on the criterion established by the American College of Rheumatology” (50% improvement on the ACR criterion) has been achieved: 50% or more improvement is observed in the items 1) and 2) and 50% or more improvement is observed in at least three of the five items 3) to 7). The efficacy of SMP-114 may be evaluated on the basis of the proportion of patients satisfying the requirement “50% improvement on the criterion established by the American College of Rheumatology”.\nThe efficacy of SMP-114 may be evaluated on the basis of improvement rates of the above-mentioned rating items on the criterion established by the American College of Rheumatology and QOL measure (SF-36) (Ware, J E. & Sherbourne C D., “The MOS 36-Item Short-Form Health Survey (SF-36); 1. Conceptual 10 Framework and Item Selection.”, Med Care 1981; 18:806). The improvement rates may be expressed as the rates of change calculated on the basis of the difference between values obtained 16 weeks after the start of the administration and initial values obtained before the start of the administration.\nStratification analysis was carried out by employing as an indication the history of treatment with disease modifying antirheumatic drugs (DMARDs) other than SMP-114, i.e., the number of the DMARDs other than SMP-114 which had been used. There are shown below the results of the analysis carried out by dividing patients into patients with rheumatoid arthritis who had been treated with one or two DMARDs other than SMP-114 (group A) and patients with rheumatoid arthritis who had been treated with 3 to 5 DMARDs other than SMP-114 (group B). […]",
  "key": {"[1]": {"settings": "40 mg/day, 16 weeks, erythrocyte sedimentation rate used as item 7)"}, "[2]": {"settings": "80 mg/day, 16 weeks, erythrocyte sedimentation rate used as item 7)"}, "[3]": {"settings": "120 mg/day, 16 weeks, erythrocyte sedimentation rate used as item 7)"}, "[4]": {"settings": "total active groups, patient's assessment of pain (VAS) < 67"}, "[5]": {"settings": "total active groups, patient's assessment of pain (VAS) ≧ 67"}, "[6]": {"settings": "total active groups, physician's global assessment (VAS) < 63"}, "[7]": {"settings": "total active groups, physician's global assessment (VAS) ≧ 63"}},
  "data": [
    {"compound": "C[C@@H](c1ccc(-c2ccccc2)c(F)c1)c1cc(/N=C(/N)N2CCOCC2)on1", "note": "[SMP-114, 3-[(1S)-1-(2-fluorobiphenyl-4-yl)ethyl]-5-{[amino(morpholin-4-yl)methylene]amino}isoxazole]", "values": [
      {"measurement": "improvement rate: SF-36 mental scale", "setting": "40 mg/day", "value": 43.7, "unit": "%"},
      {"measurement": "improvement rate: SF-36 physical scale", "setting": "40 mg/day", "value": 33.3, "unit": "%"},
      {"measurement": "improvement rate: erythrocyte sedimentation rate", "setting": "40 mg/day", "value": 3.2, "unit": "%"},
      {"measurement": "improvement rate: patient's self-assessed physical functions", "setting": "40 mg/day", "value": 4.3, "unit": "%"},
      {"measurement": "improvement rate: reduction of swollen joint count", "setting": "40 mg/day", "value": 22.3, "unit": "%"},
      {"measurement": "improvement rate: reduction of tender joint count", "setting": "40 mg/day", "value": 16.0, "unit": "%"},
      {"measurement": "improvement rate: patient's assessment of pain", "setting": "40 mg/day", "value": 17.1, "unit": "%"},
      {"measurement": "improvement rate: patient's global assessment of disease activity", "setting": "40 mg/day", "value": 19.3, "unit": "%"},
      {"measurement": "improvement rate: physician's global assessment of disease activity", "setting": "40 mg/day", "value": 12.7, "unit": "%"},
      {"measurement": "improvement rate: CRP", "setting": "40 mg/day", "value": "−12.3"},
      {"measurement": "ACR20 improvement rate", "setting": "40 mg/day, 16 weeks, CRP used as item 7)", "value": 38.2, "unit": "%"},
      {"measurement": "ACR20 improvement rate", "setting": "[1]", "value": 38.2, "unit": "%"},
      {"measurement": "ACR50 improvement rate", "setting": "[1]", "value": 10.9, "unit": "%"},
      {"measurement": "Number of ACR50 responders", "setting": "40 mg/day, 55 patients", "value": 6},
      {"measurement": "Number of ACR20 responders", "setting": "40 mg/day, 55 patients, CRP used", "value": 21},
      {"measurement": "Number of ACR20 responders", "setting": "40 mg/day, 55 patients, erythrocyte sedimentation rate used", "value": 21},
      {"measurement": "improvement rate: SF-36 mental scale", "setting": "80 mg/day", "value": 46.1, "unit": "%"},
      {"measurement": "improvement rate: SF-36 physical scale", "setting": "80 mg/day", "value": 28.8, "unit": "%"},
      {"measurement": "improvement rate: erythrocyte sedimentation rate", "setting": "80 mg/day", "value": 4.0, "unit": "%"},
      {"measurement": "improvement rate: patient's self-assessed physical functions", "setting": "80 mg/day", "value": 10.6, "unit": "%"},
      {"measurement": "improvement rate: reduction of swollen joint count", "setting": "80 mg/day", "value": 18.7, "unit": "%"},
      {"measurement": "improvement rate: reduction of tender joint count", "setting": "80 mg/day", "value": 27.6, "unit": "%"},
      {"measurement": "improvement rate: patient's assessment of pain", "setting": "80 mg/day", "value": 16.5, "unit": "%"},
      {"measurement": "improvement rate: patient's global assessment of disease activity", "setting": "80 mg/day", "value": 20.5, "unit": "%"},
      {"measurement": "improvement rate: physician's global assessment of disease activity", "setting": "80 mg/day", "value": 21.5, "unit": "%"},
      {"measurement": "improvement rate: CRP", "setting": "80 mg/day", "value": "−26.4"},
      {"measurement": "ACR20 improvement rate", "setting": "80 mg/day, 16 weeks, CRP used as item 7)", "value": 34.5, "unit": "%"},
      {"measurement": "ACR20 improvement rate", "setting": "[2]", "value": 36.4, "unit": "%"},
      {"measurement": "ACR50 improvement rate", "setting": "[2]", "value": 10.9, "unit": "%"},
      {"measurement": "Number of ACR50 responders", "setting": "80 mg/day, 55 patients", "value": 6},
      {"measurement": "Number of ACR20 responders", "setting": "80 mg/day, 55 patients, CRP used", "value": 19},
      {"measurement": "Number of ACR20 responders", "setting": "80 mg/day, 55 patients, erythrocyte sedimentation rate used", "value": 20},
      {"measurement": "improvement rate: SF-36 mental scale", "setting": "120 mg/day", "value": 44.8, "unit": "%"},
      {"measurement": "improvement rate: SF-36 physical scale", "setting": "120 mg/day", "value": 30.2, "unit": "%"},
      {"measurement": "improvement rate: erythrocyte sedimentation rate", "setting": "120 mg/day", "value": "−7.5", "unit": "%"},
      {"measurement": "improvement rate: patient's self-assessed physical functions", "setting": "120 mg/day", "value": "−8.7", "unit": "%"},
      {"measurement": "improvement rate: reduction of swollen joint count", "setting": "120 mg/day", "value": 19.7, "unit": "%"},
      {"measurement": "improvement rate: reduction of tender joint count", "setting": "120 mg/day", "value": 22.7, "unit": "%"},
      {"measurement": "improvement rate: patient's assessment of pain", "setting": "120 mg/day", "value": 17.1, "unit": "%"},
      {"measurement": "improvement rate: patient's global assessment of disease activity", "setting": "120 mg/day", "value": 14.2, "unit": "%"},
      {"measurement": "improvement rate: physician's global assessment of disease activity", "setting": "120 mg/day", "value": 24.1, "unit": "%"},
      {"measurement": "improvement rate: CRP", "setting": "120 mg/day", "value": "−98.6"},
      {"measurement": "ACR20 improvement rate", "setting": "120 mg/day, 16 weeks, CRP used as item 7)", "value": 37.0, "unit": "%"},
      {"measurement": "ACR20 improvement rate", "setting": "[3]", "value": 37.0, "unit": "%"},
      {"measurement": "ACR50 improvement rate", "setting": "[3]", "value": 13.0, "unit": "%"},
      {"measurement": "Number of ACR50 responders", "setting": "120 mg/day, 54 patients", "value": 7},
      {"measurement": "Number of ACR20 responders", "setting": "120 mg/day, 54 patients, CRP used", "value": 20},
      {"measurement": "Number of ACR20 responders", "setting": "120 mg/day, 54 patients, erythrocyte sedimentation rate used", "value": 20},
      {"measurement": "ACR20 improvement rate", "setting": "total active groups (40, 80, 120 mg/day), Group A, DMARDs treatment history = 1-2 drugs", "value": 44, "unit": "%"},
      {"measurement": "ACR20 improvement rate", "setting": "total active groups (40, 80, 120 mg/day), Group B, DMARDs treatment history = 3-5 drugs", "value": 32, "unit": "%"},
      {"measurement": "ACR20 responders / cases", "setting": "total active groups, Group A, DMARDs treatment history = 1-2 drugs", "value": "32/72"},
      {"measurement": "ACR20 responders / cases", "setting": "total active groups, Group B, DMARDs treatment history = 3-5 drugs", "value": "29/92"},
      {"measurement": "ACR20 improvement rate", "setting": "[4]", "value": 50, "unit": "%"},
      {"measurement": "ACR20 responders / cases", "setting": "[4]", "value": "36/72"},
      {"measurement": "ACR20 improvement rate", "setting": "[5]", "value": 27, "unit": "%"},
      {"measurement": "ACR20 responders / cases", "setting": "[5]", "value": "25/92"},
      {"measurement": "ACR20 improvement rate", "setting": "[6]", "value": 42, "unit": "%"},
      {"measurement": "ACR20 responders / cases", "setting": "[6]", "value": "31/74"},
      {"measurement": "ACR20 improvement rate", "setting": "[7]", "value": 33, "unit": "%"},
      {"measurement": "ACR20 responders / cases", "setting": "[7]", "value": "30/90"}
    ]}
  ]
}
